In patent publication US11524968B2, “Heterocyclic compound as a protein kinase inhibitor” (HK inno.N Corporation, priority 2017, dated 2022):

These compounds were tested against JAK1 (Homo sapiens (Human), UniProt P23458) (assay: Analysis of JAK1 activity inhibition ability (ADP-Glo Kinase Assay)). Details: JAK1 enzyme, ADP-Glo luminescence, ATP 250 uM, IRS-itide substrate, 30° C. 40 minutes; read-out: IC50.
Format: biochemical
Summary of the method: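 JAK1 enzyme, IRS-itide substrate (40 ng/mL) and 250 uM ATP, both as prepared in kinase buffer (Tris-HCl pH 7.5, MgCl2, BSA, DTT), reacted with compound 40 min at 30 °C. ADP formed was detected by ADP-Glo luminescence; IC50 is the concentration giving 50% inhibition versus control.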

Chain of JAK1 (P23458 whole entry): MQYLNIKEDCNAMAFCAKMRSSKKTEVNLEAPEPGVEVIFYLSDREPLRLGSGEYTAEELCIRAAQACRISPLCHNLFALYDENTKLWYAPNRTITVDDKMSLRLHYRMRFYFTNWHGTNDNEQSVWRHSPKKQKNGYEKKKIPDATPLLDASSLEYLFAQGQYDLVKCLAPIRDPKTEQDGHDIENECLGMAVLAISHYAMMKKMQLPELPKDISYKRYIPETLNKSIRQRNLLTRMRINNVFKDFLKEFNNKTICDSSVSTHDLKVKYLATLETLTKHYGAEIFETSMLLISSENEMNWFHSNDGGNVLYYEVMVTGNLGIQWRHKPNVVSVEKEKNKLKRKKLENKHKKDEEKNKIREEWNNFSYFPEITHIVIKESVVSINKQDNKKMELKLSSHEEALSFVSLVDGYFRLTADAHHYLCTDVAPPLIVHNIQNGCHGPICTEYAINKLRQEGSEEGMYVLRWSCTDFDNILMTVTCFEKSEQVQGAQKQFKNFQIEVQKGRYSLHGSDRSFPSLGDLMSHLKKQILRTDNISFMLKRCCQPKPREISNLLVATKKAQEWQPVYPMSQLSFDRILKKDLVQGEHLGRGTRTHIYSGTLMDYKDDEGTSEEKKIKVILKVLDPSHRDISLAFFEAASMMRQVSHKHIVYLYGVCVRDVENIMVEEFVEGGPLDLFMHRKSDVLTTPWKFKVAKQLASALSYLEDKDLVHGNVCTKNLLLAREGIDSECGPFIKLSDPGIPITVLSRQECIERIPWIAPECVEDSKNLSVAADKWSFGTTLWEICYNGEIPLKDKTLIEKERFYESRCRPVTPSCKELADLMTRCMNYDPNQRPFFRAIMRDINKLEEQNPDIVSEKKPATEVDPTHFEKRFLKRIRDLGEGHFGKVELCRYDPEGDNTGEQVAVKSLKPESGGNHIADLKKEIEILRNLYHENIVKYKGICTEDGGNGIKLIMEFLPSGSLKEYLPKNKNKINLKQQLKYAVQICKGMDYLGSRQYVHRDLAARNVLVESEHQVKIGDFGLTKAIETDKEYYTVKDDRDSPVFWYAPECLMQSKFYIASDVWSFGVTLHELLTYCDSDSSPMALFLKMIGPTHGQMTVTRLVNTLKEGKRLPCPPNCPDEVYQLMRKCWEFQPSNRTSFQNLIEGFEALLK

Compound	IC50 [nM]
N#CCCCS(=O)(=O)Nc1ccc(-c2nc(NC(=O)C3CC3)nc3[nH]ccc23)cc1 [Example 186, N-(4-(4-((3-cyanopropyl)sulfonamido)phenyl)-7H-pyrrolo[2,3-d]pyrimidin-2-yl)cyclopropanecarboxamide]	20 to 200
CN(C)c1nc(-c2ccc(NS(=O)(=O)c3ccc(F)c(F)c3)cc2)c2cc[nH]c2n1 [Example 718, N-(4-(2-(dimethylamino)-7H-pyrrolo[2,3-d]pyrimidin-4-yl)phenyl)-3,4-difluorobenzenesulfonamide]	> 200
CCS(=O)(=O)Nc1ccc(-c2cc(NC(=O)C3CC3)nc3[nH]cc(C)c23)cc1 [Example 93, N-(4-(4-(ethylsulfonamido)phenyl)-3-methyl-1H-pyrrolo[2,3-b]pyridin-6-yl)cyclopropanecarboxamide]	20 to 200
O=C(Nc1cc(C2=CCN(Cc3ccns3)CC2)c2cc[nH]c2n1)C1CC1 [Example 488, N-(4-(1-(isothiazol-5-ylmethyl)-1,2,3,6-tetrahydropyridin-4-yl)-1H-pyrrolo[2,3-b]pyridin-6-yl)cyclopropanecarboxamide]	< 20
Cc1ccc(S(=O)(=O)Nc2ccc(-c3cc(NC(=O)C4CC4)nc4[nH]ccc34)cc2)cc1 [Example 27, N-(4-(4-((4-methylphenyl)sulfonamido)phenyl)-1H-pyrrolo[2,3-b]pyridin-6-yl)cyclopropanecarboxamide]	20 to 200
O=C(Nc1nc(-c2ccc(NC(=S)NC3CCCCC3)cc2)c2cc[nH]c2n1)C1CC1 [Example 464, N-(4-(4-(3-cyclohexylthioureido)phenyl)-7H-pyrrolo[2,3-d]pyrimidin-2-yl)cyclopropanecarboxamide]	> 200
O=C(Nc1cc(-c2ccc(NS(=O)(=O)c3ccc(Cl)nc3)cc2)c2cc[nH]c2n1)C1CC1 [Example 12, N-(4-(4-((6-chloropyridine)-3-sulfonamido)phenyl)-1H-pyrrolo[2,3-b]pyridin-6-yl)cyclopropanecarboxamide]	< 20
Cc1nnn(Cc2ccc(-c3cc(NC(=O)C4CC4)nc4[nH]cnc34)cc2)n1 [Example 593, N-(7-(4-((5-methyl-2H-tetrazol-2-yl)methyl)phenyl)-3H-imidazo[4,5-b]pyridin-5-yl)cyclopropanecarboxamide]	> 200
O=C(Nc1cc(N2CCN(CC(=O)N3CCS(=O)(=O)CC3)CC2)c2cc[nH]c2n1)C1CC1 [Example 702, N-(4-(4-(2-(1,1-dioxidothiomorpholino)-2-oxoethyl)piperazin-1-yl)-1H-pyrrolo[2,3-b]pyridin-6-yl)cyclopropanecarboxamide]	> 200
CC(C)N(C)S(=O)(=O)Nc1ccc(-c2cc(NC(=O)C3CC3)nc3[nH]ccc23)cc1 [Example 222, N-(4-(4-((N-isopropyl-N-methylsulfamoyl)amino)phenyl)-1H-pyrrolo[2,3-b]pyridin-6-yl)cyclopropanecarboxamide]	20 to 200
CCS(=O)(=O)Nc1ccc(-c2nc(NC(=O)C3CC3)nc3[nH]ccc23)cc1F [Example 202, N-(4-(4-(ethylsulfonamido)-3-fluorophenyl)-7H-pyrrolo[2,3-d]pyrimidin-2-yl)cyclopropanecarboxamide]	20 to 200
Cc1nnnn1Cc1ccc(-c2cc(NC(=O)C3CC3)nc3[nH]cnc23)cc1 [Example 594, N-(7-(4-((5-methyl-1H-tetrazol-1-yl)methyl)phenyl)-3H-imidazo[4,5-b]pyridin-5-yl)cyclopropanecarboxamide]	> 200
Cc1cc(NS(=O)(=O)CCCC(F)(F)F)ccc1-c1cc(NC(=O)C2CC2)nc2[nH]ccc12 [Example 117, N-(4-(2-methyl-4-((4,4,4-trifluorobutyl)sulfonamido)phenyl)-1H-pyrrolo[2,3-b]pyridin-6-yl)cyclopropanecarboxamide]	< 20
N#CCC(=O)N1CC2CCC(C1)N2c1cc(NC(=O)C2CC2)nc2[nH]ccc12 [Example 678, N-(4-(3-(2-cyanoacetyl)-3,8-diazabicyclo[3.2.1]octan-8-yl)-1H-pyrrolo[2,3-b]pyridin-6-yl)cyclopropanecarboxamide]	20 to 200
O=C(Nc1cc(-c2ccc(NS(=O)(=O)c3cccc(F)c3)cc2)c2cc[nH]c2n1)C1CC1 [Example 25, N-(4-(4-((3-fluorophenyl)sulfonamido)phenyl)-1H-pyrrolo[2,3-b]pyridin-6-yl)cyclopropanecarboxamide]	< 20

Now from value to compound:

IC50 [nM]	Compound
20 to 200	O=C(Nc1cc(C2=CCN(S(=O)(=O)CCCF)CC2)c2cc[nH]c2n1)C1CC1 [Example 167, N-(4-(1-((3-fluoropropyl)sulfonyl)-1,2,3,6-tetrahydropyridin-4-yl)-1H-pyrrolo[2,3-b]pyridin-6-yl)cyclopropanecarboxamide]
< 20	CCS(=O)(=O)Nc1ccc(-c2cc(NC(=O)C3CC3)nc3[nH]ccc23)c(F)c1 [Example 30, N-(4-(4-(ethylsulfonamido)-2-fluorophenyl)-1H-pyrrolo[2,3-b]pyridin-6-yl)cyclopropanecarboxamide]
< 20	N#CCC(=O)N1CC=C(c2cc(NC(=O)C3CC3)[n+]([O-])c3[nH]ccc23)CC1 [Example 275, 4-(1-(2-cyanoacetyl)-1,2,3,6-tetrahydropyridin-4-yl)-6-(cyclopropanecarboxamido)-1H-pyrrolo[2,3-b]pyridine 7-oxide]
20 to 200	O=C(Nc1cc(N2CCN(Cc3ccns3)CC2)c2cc[nH]c2n1)C1CC1 [Example 698, N-(4-(4-(isothiazol-5-ylmethyl)piperazin-1-yl)-1H-pyrrolo[2,3-b]pyridin-6-yl)cyclopropanecarboxamide]
< 20	CC1(C)CC(c2cc(NC(=O)C3CC3)nc3[nH]ccc23)=CCN1C(=O)c1ccnc(F)c1 [Example 385, N-(4-(1-(2-fluoroisonicotinoyl)-2,2-dimethyl-1,2,3,6-tetrahydropyridin-4-yl)-1H-pyrrolo[2,3-b]pyridin-6-yl)cyclopropanecarboxamide]
20 to 200	CC1CN(C(=O)c2ccnc(C#N)c2)CC=C1c1cc(NC(=O)C2CC2)nc2[nH]ccc12 (stereo not shown) [Example 392, N-(4-(1-(2-cyanoisonicotinoyl)-3-methyl-1,2,3,6-tetrahydropyridin-4-yl)-1H-pyrrolo[2,3-b]pyridin-6-yl)cyclopropanecarboxamide]
> 200	N#CC1(CS(=O)(=O)Nc2ccc(-c3cc(NC(=O)C4CC4)nc4[nH]ccc34)c(C(=O)O)c2)CC1 [Example 143]
> 200	N#CC1(C(=O)N2CC=C(c3cc(NC(=O)C4CC4)nc4[nH]ccc34)C2)CC1 [Example 430, N-(4-(1-(1-cyanocyclopropane-1-carbonyl)-2,5-dihydro-1H-pyrrol-3-yl)-1H-pyrrolo[2,3-b]pyridin-6-yl)cyclopropanecarboxamide]
20 to 200	CC1CN(C(=O)CC2CCCC2)CC=C1c1cc(NC(=O)C2CC2)nc2[nH]ccc12 (stereo not shown) [Example 340, N-(4-(1-(2-cyclopentylacetyl)-3-methyl-1,2,3,6-tetrahydropyridin-4-yl)-1H-pyrrolo[2,3-b]pyridin-6-yl)cyclopropanecarboxamide]
> 200	CCCCNC(=O)N1CCC(c2cc(NC(=O)C3CC3)nc3[nH]ccc23)CC1 [Example 653, N-butyl-4-(6-(cyclopropanecarboxamido)-1H-pyrrolo[2,3-b]pyridin-4-yl)piperidine-1-carboxamide]
20 to 200	O=C(Nc1cc(C2=CCN(S(=O)(=O)c3ccc(F)c(F)c3)CC2)c2cc[nH]c2n1)C1CC1 [Example 173, N-(4-(1-((3,4-difluorophenyl)sulfonyl)-1,2,3,6-tetrahydropyridin-4-yl)-1H-pyrrolo[2,3-b]pyridin-6-yl)cyclopropanecarboxamide]
20 to 200	N#CC1COCCN1C(=O)Cc1ccc(-c2cc(NC(=O)C3CC3)nc3[nH]ccc23)cc1 (stereo not shown) [Example 576, N-(4-(4-(2-(3-cyanomorpholino)-2-oxoethyl)phenyl)-1H-pyrrolo[2,3-b]pyridin-6-yl)cyclopropanecarboxamide]
20 to 200	O=C(Nc1cc(-c2ccc(NS(=O)(=O)CC(F)F)cc2)c2cc[nH]c2n1)C1CC1 [Example 51, N-(4-(4-((2,2-difluoroethyl)sulfonamido)phenyl)-1H-pyrrolo[2,3-b]pyridin-6-yl)cyclopropanecarboxamide]
< 20	O=C(Nc1cc(-c2ccc(NS(=O)(=O)N3CCCCC3)c(F)c2)c2cc[nH]c2n1)C1CC1 [Example 224, N-(4-(3-fluoro-4-(piperidine-1-sulfonamido)phenyl)-1H-pyrrolo[2,3-b]pyridin-6-yl)cyclopropanecarboxamide]
> 200	O=C(Nc1cc(-c2cnn(C3CN(S(=O)(=O)C4CCCCC4)C3)c2)c2cc[nH]c2n1)C1CC1 [Example 606, N-(4-(1-(1-(cyclohexylsulfonyl)azetidin-3-yl)-1H-pyrazol-4-yl)-1H-pyrrolo[2,3-b]pyridin-6-yl)cyclopropanecarboxamide]
> 200	CC(C)(C)OC(=O)N1C=C(c2cc(NC(=O)C3CC3)nc3[nH]ccc23)CCC1 [Example 459, tert-butyl 5-(6-(cyclopropanecarboxamido)-1H-pyrrolo[2,3-b]pyridin-4-yl)-3,4-dihydropyridine-1 (2H)-carboxylate]
< 20	O=C(NCC(F)(F)F)NC1CC=C(c2cc(NC(=O)C3CC3)nc3[nH]ccc23)CC1 (stereo not shown) [Example 442, N-(4-(4-(3-(2,2,2-trifluoroethyl)ureido)cyclohex-1-en-1-yl)-1H-pyrrolo[2,3-b]pyridin-6-yl)cyclopropanecarboxamide]
> 200	CC(C)(C)OC(=O)N1CC(CC#N)(N2CC=C(c3cc(NC(=O)C4CC4)nc4[nH]ccc34)CC2)C1 [Example 614, tert-butyl 3-(cyanomethyl)-3-(4-(6-(cyclopropanecarboxamido)-1H-pyrrolo[2,3-b]pyridin-4-yl)-3,6-dihydropyridin-1 (2H)-yl)azetidine-1-carboxylate]
20 to 200	O=C(Nc1cc(C2=CCC(NS(=O)(=O)C3CC3)CC2)c2cc[nH]c2n1)C1CC1 (stereo not shown) [Example 154, N-(4-(4-(cyclopropanesulfonamido)cyclohex-1-en-1-yl)-1H-pyrrolo[2,3-b]pyridin-6-yl)cyclopropanecarboxamide]
